The subject of test [1] is insulin sensitivity in db/db diabetic mice. Description: hyperinsulinemic-euglycemic clamp. It counts as in vivo. The following applies: oral gavage 14 days; insulin 10 mU/kg/min. As to the method:
Glucose lowering in 8 week old db/db diabetic mice. The hyperinsulinemic-euglycemic clamp protocol was conducted to measure insulin sensitivity in vivo. In this procedure, insulin was administered to raise the insulin concentration while glucose was infused to maintain euglycemia or a fixed, normal blood glucose level (about 180 mg/dL). […] The objective of this protocol was to investigate characterize the capacity of 17α-ethynylandrost-5-ene-3β,7β,17β-triol and androst-5-ene-3β,7β,16α,17β-tetrol to ameliorate systemic insulin resistance and improve whole body glucose disposal in the hyperinsulinemic-euglycemic clamp model. The degree of skeletal muscle and hepatic insulin sensitivity and tissue specific glucose uptake were also assessed. The animals were dosed daily by oral gavage for 14 days. On Day 10 of treatment catheters were implanted in the carotid artery and jugular vein. On the day of the clamp (day 14) the compound was administered at 7:30 am.
Body weight and glucose concentration were assessed on day 0, 7 and day 14 of treatment. On day 14 a euglycemic hyperinsulinemic clamp was performed. Food was removed at 7:30 am at 10:30 a primed continuous infusion of [3-^3H]-glucose (0.05 μCi/min). A baseline blood sample was taken at 12:50 (−10 min) and at 1:00 (0 min) a euglycemic hyperinsulinemic clamp was initiated by administering 10 mU /kg/min of insulin. Glucose was infused at a variable rate to clamp the glucose concentration at ˜180 mg/dl. A bolus of [^14C]-2deoxyglucose was given at the end of the study to assess tissue specific glucose uptake. Plasma ^14C 2-deoxyglucose was assessed at 122, 125, 130, 135, 145 min. […]
Analysis was conducted as follows. Plasma samples were deproteinized with Ba(OH)2 (0.3 N) and ZnSO4 (0.3 N), dried and radioactivity was assessed on scintillation counter (Packard TRICARB 2900 TR, Meriden, Conn.). […] One supernatant was directly counted to determine radioactivity from both [14C] […] A second aliquot was treated with Ba(OH)2 and ZnSO4 to remove ^14C DGP and any tracer incorporated into glycogen and then counted to determine radioactivity from free [^14C]DG(2). [^14C]DGP was calculated as the difference between the two aliquots. […] Rg, an index of tissue specific glucose uptake was calculated as previously described (E.W. Kraegen et al., Am. J. Physiol., 248:E353-E362, 1985). Whole body glucose turnover was calculated as the ratio of the ^3H glucose infusion rate (dpm/kg/min) and arterial plasma glucose specific activity (dpm/mg). Endogenous glucose production was calculated as the difference between the whole body glucose turnover and the exogenous glucose infusion rate (R. N. Bergman et al., Endocr. Rev., 6:45-86, 1985).

The test system of a further test is 11β-HSD1. Description: expression of 11β-HSD1 in osteoblasts of treated mice. The following applies: mouse, in vivo.
The subject of test [2] is passive collagen-induced arthritis. As to the kind of experiment: passive collagen induced arthritis (anti-type II collagen antibodies). The test is classed as in vivo, DBA/1 mice. The conditions noted are these: 40 mg/kg/day oral gavage. From the text:
The capacity of formula 1 compounds to affect the course of arthritis in a passive collagen induced arthritis model of arthritis was examined essentially as previously described (E. Simelyte et al., Arthritis & Rheumatism, 52(6):1876-1884, 2005; Z. Han et al. Arthritis & Rheumatism 46(3):818-823, 2002; H. Miyahara et al., Clin. Immunol. Immunopathol., 69(1):69-76 1993). In this protocol, passive collagen-induced arthritis was induced in DBA/1 mice by administering anti-type II collagen antibodies, which induced an immune response against joint tissue in the animals. […] The severity of arthritis was assessed using a semiquantitative clinical scoring system. Groups of 8 animals per group were treated with 17α-ethynylandrost-5-ene-3β,7β,17β-triol at 40 mg/kg/day for 14 days or vehicle for 14 days by oral gavage. The vehicle was 30% cyclodextrin-sulfobutylether in water and the drug solution was vehicle with drug at 20 mg/mL.
The animals were examined by measuring ankle thickness and arthritis score (4-point/paw) with a higher score indicating a more severe arthritis. The experiment was terminated after about 14 days, and histology and gene expression measurements were performed. […] A semi-quantitative scoring system was used to access synovial inflammation, extraarticular inflammation, erosion and proteogylcan loss. […]

For test [3], the system named is human MG-63 osteosarcoma cell line. Description: reversal of dexamethasone effects in MG-63 osteoblasts. The test is classed as cell-based. The following applies: 30 nM dexamethasone; compound concentration stated with each value (17α-ethynyl triol: 1 nM).
The target in another test is estrogen receptor-β (Homo sapiens, UniProt Q92731). Description: interaction with sex hormone receptor. The test is classed as binding.
Chain of estrogen receptor-β (Q92731 whole entry, species assumed): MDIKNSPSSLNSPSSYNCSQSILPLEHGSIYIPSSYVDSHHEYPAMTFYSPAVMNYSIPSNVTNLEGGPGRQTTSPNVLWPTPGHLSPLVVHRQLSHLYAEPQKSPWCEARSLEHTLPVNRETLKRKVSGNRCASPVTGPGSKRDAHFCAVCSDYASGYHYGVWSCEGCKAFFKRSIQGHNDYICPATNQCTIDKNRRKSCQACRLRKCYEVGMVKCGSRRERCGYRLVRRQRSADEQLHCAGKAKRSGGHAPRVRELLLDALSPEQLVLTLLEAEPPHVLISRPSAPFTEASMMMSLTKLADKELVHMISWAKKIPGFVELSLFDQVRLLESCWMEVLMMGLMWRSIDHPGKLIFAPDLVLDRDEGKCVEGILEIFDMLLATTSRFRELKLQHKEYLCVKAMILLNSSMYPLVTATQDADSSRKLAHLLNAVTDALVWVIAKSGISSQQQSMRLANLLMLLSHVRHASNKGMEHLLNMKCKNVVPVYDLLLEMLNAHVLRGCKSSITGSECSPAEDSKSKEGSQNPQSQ

For the compound `C#C[C@]1(O)CC[C@H]2[C@@H]3[C@@H](O)C=C4C[C@@H](O)CC[C@]4(C)[C@H]3CC[C@@]21C` [17α-ethynylandrost-5-ene-3β,7β,17β-triol], in test [1], the “glucose infusion rate compared to vehicle control” value is given as “increased the glucose infusion rate”. Besides, the “decrease of expression of 11β-HSD1 in osteoblasts” value in the test on 11β-HSD1 is given as “about 50%”. For the same compound, in test [2] (day 7), the maximum clinical score is 5.1. The “clinical score at day 14” value in test [2] (end of protocol) was 4.1. Moreover, in test [3], the “reversal of the decrease in osteoprotegerin synthesis” value is “completely reversed the decrease in osteoprotegerin synthesis”. Also, the “interaction with estrogen receptor-β” value at estrogen receptor-β is given as “do not interact”.
